“And” between values parts separate entries of the source, which are not always exact repeats. Equal entries are not always repeated. Inconclusive results and toxic doses are left out. Rule as the data show it: active = T/C of 150% or more; inactive = T/C below 125%.
Tested on: L1210 leukemia ip in BDF1 mice, survival T/C
Experiment: NCI In Vivo Anticancer Drug Screen. Data for tumor model L1210 Leukemia (intraperitoneal) in B6D2F1 (BDF1) mice
Details: endpoint: mean survival time, higher = longer survival
Summary of the method: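 Value reflects the ratio of survival in compound-treated mice to survival in vehicle-treated controls, with both groups carrying the same transplanted tumor.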

[1] = dose: 400.0 mg/kg/injection, schedule: Q04DX002 (ip), vehicle: saline with Tween-80
[2] = dose: 100.0 mg/kg/injection, schedule: Q04DX003 (ip), vehicle: saline
[3] = dose: 200.0 mg/kg/injection, schedule: Q04DX003 (ip), vehicle: saline
[4] = dose: 400.0 mg/kg/injection, schedule: Q04DX003 (ip), vehicle: saline
[5] = dose: 100.0 mg/kg/injection, schedule: Q04DX003 (ip), vehicle: Klucel (hydroxypropylcellulose) (HPC)
[6] = dose: 100.0 mg/kg/injection, schedule: Q01DX001 (ip), vehicle: saline
[7] = dose: 100.0 mg/kg/injection, schedule: Q01DX009 (ip), vehicle: saline with Tween-80
[8] = dose: 200.0 mg/kg/injection, schedule: Q01DX009 (ip), vehicle: saline with Tween-80
[9] = dose: 200.0 mg/kg/injection, schedule: Q04DX003 (ip), vehicle: Klucel (hydroxypropylcellulose) (HPC)
[10] = dose: 400.0 mg/kg/injection, schedule: Q01DX001 (ip), vehicle: saline
[11] = dose: 100.0 mg/kg/injection, schedule: Q04DX003 (ip), vehicle: saline with Tween-80
[12] = dose: 200.0 mg/kg/injection, schedule: Q04DX003 (ip), vehicle: saline with Tween-80
[13] = dose: 400.0 mg/kg/injection, schedule: Q04DX003 (ip), vehicle: saline with Tween-80
[14] = dose: 100.0 mg/kg/injection, schedule: Q04DX002 (ip), vehicle: saline with Tween-80
[15] = dose: 200.0 mg/kg/injection, schedule: Q04DX002 (ip), vehicle: saline with Tween-80

Measured: T/C

Fc1cc(F)c(F)c(Nc2ccccc2)c1F
inactive: dose: 25.6 mg/kg/injection, schedule: Q04DX002 (ip), vehicle: saline with Tween-80 113 % of control | dose: 64.0 mg/kg/injection, schedule: Q04DX002 (ip), vehicle: saline with Tween-80 89 % of control | dose: 160.0 mg/kg/injection, schedule: Q04DX002 (ip), vehicle: saline with Tween-80 95 % of control | [1] 106 % of control

[N-]=[N+]=CC(=O)NCC(N)=O
inactive: dose: 125.0 mg/kg/injection, schedule: Q01DX009 (ip), vehicle: other 110 % of control | dose: 125.0 mg/kg/injection, schedule: Q01DX009 (sc), vehicle: other 91 % of control | dose: 222.0 mg/kg/injection, schedule: Q01DX Z (ip), vehicle: water 121 % of control | dose: 250.0 mg/kg/injection, schedule: Q01DX009 (sc), vehicle: other 97 % of control | dose: 500.0 mg/kg/injection, schedule: Q01DX009 (sc), vehicle: other 103 % of control | dose: 750.0 mg/kg/injection, schedule: Q01DX009 (sc), vehicle: other 97 % of control | dose: 750.0 mg/kg/injection, schedule: Q01DX Z (ip), vehicle: water 104 % of control

O=C(c1ccccc1Cl)c1cccc2ccccc12
inactive: [2] 115 % of control | [3] 100 % of control | [4] 106 % of control

CC(C)(C)N1CC1C(=O)Sc1ccccc1 (stereo not drawn)
inactive: dose: 25.0 mg/kg/injection, schedule: Q04DX003 (ip), vehicle: Klucel (hydroxypropylcellulose) (HPC) 102 % of control | dose: 50.0 mg/kg/injection, schedule: Q04DX003 (ip), vehicle: Klucel (hydroxypropylcellulose) (HPC) 101 % of control | [5] 109 % of control

COc1ccc(/C=C(/C)[N+](=O)[O-])cc1OC
inactive: dose: 50.0 mg/kg/injection, schedule: Q01DX001 (ip), vehicle: Klucel (hydroxypropylcellulose) (HPC) 98 % of control | dose: 50.0 mg/kg/injection, schedule: Q01DX009 (ip), vehicle: saline with Tween-80 91 % of control | dose: 100.0 mg/kg/injection, schedule: Q01DX001 (ip), vehicle: Klucel (hydroxypropylcellulose) (HPC) 94 % of control | [6] 93 % of control | [7] 115 % of control | [5] 97 % of control | dose: 200.0 mg/kg/injection, schedule: Q01DX001 (ip), vehicle: Klucel (hydroxypropylcellulose) (HPC) 103 % of control | [8] 100 % of control | [9] 102 % of control | [10] 98 % of control | dose: 400.0 mg/kg/injection, schedule: Q04DX003 (ip), vehicle: Klucel (hydroxypropylcellulose) (HPC) 97 % of control

CC(C(=O)c1ccccc1)S(=O)(=O)O (stereo not drawn)
inactive: [2] 102 % of control | [3] 94 % of control | [4] 96 % of control

C1CCC2CC(NC3=NCCO3)CCC2C1 (stereo not drawn)
inactive: dose: 0.19 mg/kg/injection, schedule: Q01DX009 (ip), vehicle: Klucel (hydroxypropylcellulose) (HPC) 96 % of control | dose: 0.39 mg/kg/injection, schedule: Q01DX009 (ip), vehicle: Klucel (hydroxypropylcellulose) (HPC) 98 % of control | dose: 0.78 mg/kg/injection, schedule: Q01DX009 (ip), vehicle: Klucel (hydroxypropylcellulose) (HPC) 98 % of control and 113 % of control

CC1Cc2c(cccc2[N+](=O)[O-])C1=O (stereo not drawn)
inactive: [11] 101 % of control | [12] 96 % of control | [13] 107 % of control

C[N+](C)(C)CCOC(=O)c1ccccc1CCl
inactive: [14] 98 % of control | [15] 102 % of control

CCCCCC(C)O[Si](C)c1cccc2ccccc12 (stereo not drawn)
inactive: [7] 98 % of control | [11] 92 % of control | [8] 93 % of control | [12] 92 % of control | dose: 400.0 mg/kg/injection, schedule: Q01DX009 (ip), vehicle: saline with Tween-80 104 % of control | [13] 101 % of control

C=C(CC(N)=O)C(=O)O (tested in a mixture with another compound)
inactive: dose: 6.25 mg/kg/injection, schedule: Q01DX009 (ip), vehicle: saline 97 % of control | dose: 12.5 mg/kg/injection, schedule: Q01DX009 (ip), vehicle: saline 100 % of control | dose: 20.0 mg/kg/injection, schedule: Q01DX009 (ip), vehicle: saline 105 % of control | dose: 25.0 mg/kg/injection, schedule: Q01DX009 (ip), vehicle: saline 105 % of control | dose: 35.0 mg/kg/injection, schedule: Q01DX009 (ip), vehicle: saline 94 % of control | dose: 50.0 mg/kg/injection, schedule: Q01DX001 (ip), vehicle: saline 107 % of control | dose: 50.0 mg/kg/injection, schedule: Q01DX009 (ip), vehicle: saline 106 % of control | dose: 65.0 mg/kg/injection, schedule: Q01DX009 (ip), vehicle: saline 102 % of control | [6] 118 % of control | dose: 100.0 mg/kg/injection, schedule: Q01DX009 (ip), vehicle: saline 111 % of control | dose: 125.0 mg/kg/injection, schedule: Q01DX009 (ip), vehicle: saline 119 % of control | dose: 177.0 mg/kg/injection, schedule: Q01DX001 (ip), vehicle: saline 110 % of control | dose: 200.0 mg/kg/injection, schedule: Q01DX001 (ip), vehicle: saline 107 % of control | dose: 200.0 mg/kg/injection, schedule: Q01DX009 (ip), vehicle: saline 111 % of control | dose: 266.0 mg/kg/injection, schedule: Q01DX001 (ip), vehicle: saline 124 % of control | dose: 270.0 mg/kg/injection, schedule: Q01DX001 (ip), vehicle: saline 110 % of control | dose: 270.0 mg/kg/injection, schedule: Q01DX009 (ip), vehicle: saline 120 % of control and 123 % of control | [10] 111 % of control | dose: 400.0 mg/kg/injection, schedule: Q01DX009 (ip), vehicle: saline 101 % of control and 111 % of control and 117 % of control | dose: 600.0 mg/kg/injection, schedule: Q01DX001 (ip), vehicle: saline 114 % of control | dose: 600.0 mg/kg/injection, schedule: Q01DX009 (ip), vehicle: saline 113 % of control | dose: 800.0 mg/kg/injection, schedule: Q01DX001 (ip), vehicle: saline 122 % of control | dose: 1000.0 mg/kg/injection, schedule: Q01DX001 (ip), vehicle: saline 113 % of control

COc1cc(N=Nc2ccccc2OC)ccc1N
inactive: dose: 50.0 mg/kg/injection, schedule: Q01DX001 (ip), vehicle: carboxymethylcellulose (CMC) 97 % of control | dose: 100.0 mg/kg/injection, schedule: Q01DX001 (ip), vehicle: carboxymethylcellulose (CMC) 109 % of control | dose: 200.0 mg/kg/injection, schedule: Q01DX001 (ip), vehicle: carboxymethylcellulose (CMC) 106 % of control | dose: 400.0 mg/kg/injection, schedule: Q01DX001 (ip), vehicle: carboxymethylcellulose (CMC) 101 % of control

CN=C(NC)c1cccc(NC(=O)Nc2ccc(NC(=O)Nc3cccc(C(=NC)NC)c3)cc2)c1
inactive: dose: 2.3 mg/kg/injection, schedule: Q01DX Z (ip), vehicle: carboxymethylcellulose (CMC) 93 % of control | dose: 3.5 mg/kg/injection, schedule: Q01DX Z (ip), vehicle: carboxymethylcellulose (CMC) 97 % of control | dose: 5.3 mg/kg/injection, schedule: Q01DX Z (ip), vehicle: carboxymethylcellulose (CMC) 95 % of control | dose: 5.5 mg/kg/injection, schedule: Q01DX Z (ip), vehicle: carboxymethylcellulose (CMC) 96 % of control | dose: 8.0 mg/kg/injection, schedule: Q01DX Z (ip), vehicle: carboxymethylcellulose (CMC) 97 % of control | dose: 8.3 mg/kg/injection, schedule: Q01DX Z (ip), vehicle: carboxymethylcellulose (CMC) 98 % of control | dose: 12.5 mg/kg/injection, schedule: Q01DX Z (ip), vehicle: carboxymethylcellulose (CMC) 101 % of control | dose: 18.75 mg/kg/injection, schedule: Q01DX Z (ip), vehicle: carboxymethylcellulose (CMC) 115 % of control

N=C(N)N/N=C(\C=N\NC(=N)N)c1ccc(Oc2ccc(C(/C=N/NC(=N)N)=N\NC(=N)N)cc2)cc1
inactive: dose: 3.8 mg/kg/injection, schedule: Q01DX Z (ip), vehicle: saline 98 % of control | dose: 7.5 mg/kg/injection, schedule: Q01DX Z (ip), vehicle: saline 114 % of control | dose: 15.0 mg/kg/injection, schedule: Q01DX Z (ip), vehicle: saline 118 % of control

Cc1c(O)c2ccccc2[nH]c1=O
inactive: [14] 97 % of control | [15] 103 % of control | [1] 106 % of control

CCCCN=C=NCCC[N+](C)(C)C
inactive: [5] 98 % of control | [9] 107 % of control
